{
  "source": "patent US9168317B2",
  "about": "“In vivo imaging method of mood disorders” (GE Healthcare Limited, priority 2010, dated 2015)",
  "key": {"Wistar rat heart PBR": {"target": "T1, Wistar rat heart PBR (Rattus norvegicus, UniProt P16257)", "T1 construct": "from tissue; host or cells: Wistar rat heart", "assay": "In vitro potency assay: competition against 0.3 nM [3H]PK-11195 binding", "method": "Non-radioactive analogues of in vivo imaging agents of the invention were tested.\nEach test compound (dissolved in 50 mM Tris-HCl, pH 7.4, 10 mM MgCl2 containing 1% DMSO) competed for binding to Wistar rat heart PBR against 0.3 nM [^3H] […] The reaction, was carried out in 50 mM Tris-HCl, pH 7.4 10 mM MgCl2 for 15 minutes at 25° C."}, "[1]": {"assay": "In vivo biodistribution method", "details": "for Brain 2 min / OB 30 min: adult male Wistar rats, 1-3 MBq via lateral tail vein; for Brain 2 min: 2 min after injection; for OB 30 min: olfactory bulb", "protocol": "Imaging agents of the invention were tested in an in vivo biodistribution model.\nAdult male Wistar rats (200-300 g) were injected with 1-3 MBq of test compound via the lateral tail vein. At 2, 10, 30 or 60 min (n=3) after injection, rats were euthanised and tissues or fluids were sampled for radioactive measurement on a gamma counter."}},
  "note": "Like-named read-outs stand apart in the source and are kept apart here.",
  "data": [
    {"smiles": "CN(Cc1ccccc1)C(=O)C1CCCc2c1c1ccccc1n2CC[18F]", "note": "(centres unmarked) [compound 7]", "values": [
      {"measurement": "Ki", "setting": "Wistar rat heart PBR", "value": 1.25, "unit": "nM"},
      {"measurement": "Brain 2 min", "setting": "[1]", "value": 0.55, "unit": "% ID/g"},
      {"measurement": "OB 30 min", "setting": "[1]; 30 min after injection", "value": 0.34, "unit": "% ID/g"},
      {"measurement": "OB:Str 30 min", "setting": "[1]; ratio olfactory bulb:striatum, 30 min after injection, Wistar rats", "value": 3.40}
    ]},
    {"smiles": "O=C(C1CCCc2c1c1ccccc1n2CC[18F])N1CCCCC1", "note": "(centres unmarked) [compound 6]", "values": [
      {"measurement": "Ki", "setting": "Wistar rat heart PBR", "value": 18.3, "unit": "nM"}
    ]},
    {"smiles": "CCN(CC)C(=O)C1CCCc2c1c1cc(F)ccc1n2CC[18F]", "note": "(centres unmarked) [compound 9]", "values": [
      {"measurement": "Ki", "setting": "Wistar rat heart PBR", "value": 3.79, "unit": "nM"},
      {"measurement": "Brain 2 min", "setting": "[1]", "value": 0.56, "unit": "% ID/g"},
      {"measurement": "OB 30 min", "setting": "[1]; 30 min after injection", "value": 0.41, "unit": "% ID/g"}
    ]},
    {"smiles": "CCN(CC)C(=O)C1CCCc2c1c1c(OC)cccc1n2CC[18F]", "note": "(centres unmarked) [compound 5]", "values": [
      {"measurement": "Ki", "setting": "Wistar rat heart PBR; non-radioactive analogues, vs 0.3 nM [3H]PK-11195, 50 mM Tris-HCl pH 7.4, 10 mM MgCl2, 15 minutes at 25° C., read-out: Ki", "value": 1.47, "unit": "nM"}
    ]},
    {"smiles": "CCN(CC)C(=O)C1CCCc2c1c1c(F)cccc1n2CC[18F]", "note": "(centres unmarked) [compound 10]", "values": [
      {"measurement": "Brain 2 min", "setting": "[1]", "value": 0.50, "unit": "% ID/g"},
      {"measurement": "OB 30 min", "setting": "[1]; 30 min after injection", "value": 0.51, "unit": "% ID/g"}
    ]}
  ]
}
